# According to US12329774B2, “Method and composition for enhancing the quality and benefits of sleep” (priority 2020, dated 2025):
# “Also recorded” adds a separate entry of the source.
# Tests used:
# [1] = system: brain waves (spike amplitude / spike frequency); experiment: Electrocorticography (ECoG) of brain electrical activity in caffeine-induced wakefulness mice; assay type: in vivo; conditions: caffeine-induced wake mouse, electrical activity over 120 minutes, result in words
# Procedure: Animals were anesthetized with urethane ([…], i.p., Sigma U2500). Body temperature was maintained between 36.5 and 37° C. with homeothermic blanket. Mice were stabilized under a stereotaxic frame (World Precision Instruments, Berlin; Germany) and an incision was made on the skin along the anterior/posterior line of the skull. The left […] was removed gently with a dental drill (Marothon-3; Korea). Two Ag—AgCl sphere electrodes were placed over the left hemisphere with the reference electrode attached on the pinna.
# Brains were rapidly removed, frozen on dry ice and stored at −80° C. until analyses could be performed.
# [2] = Observations after administration in the animal studies of Example 5 (absorption, side effects); assay type: in vivo, mice
# Text: Neither component in magnesium […] compositions of the invention (i.e., magnesium or L-theanine) has been reported to cause addiction.
# [3] = system: GABAA-R2, GABAB-R1, GABAB-R2, 5-HT1A, GluA1, GluN1, GluN2A; experiment: Western blot of GABA and other neurotransmitter receptors in caffeine-induced wakefulness mice; conditions: caffeine-induced wake mouse; result in words; listed as magnesium di-L-theanate compositions
# MDA, SOD, CAT, GSHPx = experiment: Brain antioxidant status in caffeine-induced wakefulness mice; assay type: in vivo; conditions: caffeine-induced wake mouse, result in words
# Procedure: Animals were anesthetized with urethane ([…], i.p., Sigma U2500). Body temperature was maintained between 36.5 and 37° C. with homeothermic blanket. Mice were stabilized under a stereotaxic frame (World Precision Instruments, Berlin; Germany) and an incision was made on the skin along the anterior/posterior line of the skull. The left […] was removed gently with a dental drill (Marothon-3; Korea). Two Ag-AgCl sphere electrodes were placed over the left hemisphere with the reference electrode attached on the pinna. […] Brains were rapidly removed, frozen on dry ice and stored at -80° C. until analyses could be performed. Biochemical and Oxidative Stress Markers-Serum melatonin, serotonin, and dopamine were measured using ELISA kits. Brain levels of malondialdehyde (MDA) were measured by HPLC. Brain activities of superoxide dismutase (SOD), catalase (CAT) and glutathione peroxidase (GSHPx) were measured using ELISA kits for each analyte.
# Storage stability = assay type: physicochemical; conditions: temperature range, low relative humidity; result in words; listed as Magnesium di-L-theanate compositions
# [4] = system: Bax, Bcl-2, Caspase-3, eNOS, iNOS; experiment: Western blot of brain cell survival indicators in caffeine-induced wakefulness mice; conditions: caffeine-induced wake mouse; result in words; listed as magnesium di-L-theanate
# [5] = system: caffeine-induced wakefulness mice; experiment: Caffeine-induced wakefulness mouse model: sleep latency, sleep duration, number falling asleep; assay type: in vivo
# Procedure: Animals and Experimental design: Seven male BALB/c mice per treatment arm (age: 8 weeks, weight: […]) were housed in a controlled environment with a 12:12-h light-dark cycle at 22° C. and were provided with mice chow and water ad libitum. All experiments were conducted under the National Institutes of Health's Guidelines for the Care and Use of Laboratory Animals and approved by the Ethics Committee of the Medipol University.
# Drugs and materials: Study product was provided by Nutrition21 LLC (Mg-Theanate #1=lot AA209-122-20, Mg-Theanate #2=lot BLS-DN 13). […] The concentration of each drug solution was adjusted so that the volume injected was constant at 1.0 ml/kg BW. All drug solutions were prepared fresh daily, and were administered intraperitoneally (i.p.). […]
# Solubility in water = assay type: physicochemical
# [6] = system: brain serotonin, dopamine and melatonin; experiment: Brain neurotransmitter levels by ELISA in caffeine-induced wakefulness mice; assay type: in vivo; conditions: caffeine-induced wake mouse, result in words
# [7] = system: pentobarbital-induced sleep; experiment: Pentobarbital-induced sleep test mouse model; assay type: in vivo, mice; conditions: for Duration of sleep / Sleep latency period: pentobarbital 42 mg/kg, test article 20 mg theanine/kg per os 45 min before
# Procedure: Subsequently, pentobarbital was administered intraperitoneally to induce a hypnotic state that promoted sleep. The effects on sleep of the test agents were monitored.
# Pentobarbital-induced sleep was performed according to published methods with slight modifications. Mice were fasted for 24 h prior to the experiment. Each test article was dissolved or suspended in physiological saline and then was administered per os. The groups were administered doses of 20 mg/kg theanine, Mg-theanate #1 (20 mg theanine/kg), and Mg-theanate #2 (20 mg theanine/kg), respectively. Forty-five minutes later, a hypnotic dose of pentobarbital (42 mg/kg) was injected into the left side of the abdomen. After injection, the mice were placed in individual cages and subjected to measurements of sleep latency and duration. Sleep latency was defined as the period between pentobarbital injection and the loss of righting reflex (sleep onset), and sleep duration denoted the time elapsed between loss of the righting reflex and recovery.
# Statistical Analyses—Data are shown as mean±SEM. Sample size was calculated based on a power of 85% and a p-value of 0.05. Given that assumption, a sample size of seven per treatment was calculated. The data were analyzed using the GLM procedure of SAS (SAS Institute: SAS User's Guide: Statistics). The treatments were compared using ANOVA and Student's unpaired t-test; P<0.05 was considered statistically significant.
# [8] = listed as magnesium di-L-theanate compositions
# [9] = caffeine-induced awake mouse model, result in words
# [10] = caffeine-induced wake mouse, caffeine alone or + test article (20 mg theanine/kg)
# [11] = result in words, listed as magnesium di-L-theanate composition
# [12] = result in words, listed as magnesium di-L-theanate compositions
smiles,measurement,setting,value
"CCNC(=O)CCC(N)C(=O)O [Mg Theanate Composition, magnesium di-L-theanate]",Amplitude of brain waves,[1],increased significantly and was maintained throughout the 120 minute study period. Spike
same,Spike frequency of electrical activity in the brain,[1],frequency was significantly reduced and comparable to caffeine/theanine-treated animals.
same,Amplitude of brain waves,[1]; [8],significant increase
same,Spike frequency of electrical activity in the brain,[1]; [8],significant reduction
same,Adverse effects on activities during or immediately after wakefulness,[2],No adverse effects were observed
same,Side effects during or after treatment,[2],No side effects were observed
same,Absorption and distribution following administration,[2]; result in words,rapidly absorbed and distributed to the brain
same,GABA and other neurotransmitter receptors (receptor levels),[3],significant diminution in the caffeine-related reduction
same,"Levels of protective enzymes (SOD, CAT, GSHPx)","MDA, SOD, CAT, GSHPx","protective enzymes were decreased, the adverse changes were not as great as those shown by"
same,Level of MDA (indicator of oxidative stress),"MDA, SOD, CAT, GSHPx; [8]",decrease in oxidative stress
same,"Levels of protective enzymes (SOD, CAT, GSHPx)","MDA, SOD, CAT, GSHPx; [8]",restoration of brain anti-oxidant status
same,Storage stability,Storage stability,stable during storage under conditions having temperatures ranging from −80 °C to +120 °C at low relative humidity; also recorded: greatest at temperatures from −80 °C to +60 °C at low relative humidity
same,"Brain cell survival (Bax, Bcl-2, Caspase-3, eNOS, and iNOS, indicators of cell damage)",[4],significant normalization
same,Time after administration at which beneficial enhancement of sleep properties was exhibited,[5]; as early as,about 30 minutes
same,Number of animals falling asleep as compared to L-theanine-treated animals,[5]; [9],significant increase
same,Sleep duration as compared to L-theanine itself,[5]; [9],significant lengthening and normalization
same,Sleep latency period as compared to L-theanine itself,[5]; [9],significant decrease
same,Number of animals falling asleep (share of the group that fell asleep),[5]; [10],+ Mg Theanate Composition: 70% of the group fell asleep
same,Sleep duration period,[5]; [10],+ Mg Theanate Composition: The sleep duration period of about 50 minutes was greatly
same,Sleep latency period,[5]; [10],"slightly more than 1 minute, a significantly shorter period than found in caffeine-treated minutes"
same,solubility,Solubility in water,~650 mg/mL
same,"Neurotransmitter levels (brain serotonin, dopamine, and melatonin)",[6],"animals, levels of all three neurotransmitters were more significantly restored to control"
same,"Neurotransmitter levels (brain serotonin, dopamine, and melatonin)",[6]; [8],significant restoration
same,Animals that fell asleep (10-minute period following pentobarbital administration),[7]; 20 mg theanine/kg per os,over 50%
same,Likelihood to fall asleep within the 10 minute limit as compared to theanine,"[7]; 20 mg theanine/kg per os, result in words",significantly more likely to fall asleep
same,Duration of sleep,[7]; [11],significantly increased
same,Sleep latency period,[7]; [11],significantly reduced
same,Duration of sleep,[7]; [12],significantly and more effectively increased
same,Sleep latency period,[7]; [12],significantly and more effectively decreased
